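Where inhibition never reached the appropriate level, the endpoint shown equals the highest concentration tested. Otherwise, values were interpolated linearly from a five-concentration, 48-hour dose response in 96-well plates. Definition used: TGI = concentration required for complete inhibition of growth.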 Some results are limits rather than exact numbers.

Test systems include TK-10 renal; HOP-62 NSCLC; HT29 colon; DU-145 prostate; MOLT-4 leukemia; IGROV1 ovarian; OVCAR-4 ovarian; NCI-H226 lung; NCI/ADR-RES ovarian; U251 CNS; SF-539 CNS; OVCAR-3 ovarian; RXF 393 renal; OVCAR-5 ovarian; SR leukemia; SK-OV-3 ovarian; A498 renal; SF-268 CNS; SK-MEL-28 melanoma; MDA-MB-435.
What all share (assay): growth of human tumour cells (NCI), 48 h

For the compound `COc1ccc2c(c1)/C(=C\c1c(Cl)n(-c3ccccc3)c3ccccc13)C(=O)N2`, the TGI was 84.4 µM in the assay on TK-10 renal; 33.6 µM in the assay on HOP-62 NSCLC; 14.2 µM with HT29 colon; 21.4 µM with DU-145 prostate; more than 100 µM in the assay with MOLT-4 leukemia; 27.9 µM with IGROV1 ovarian. In addition, the TGI with OVCAR-4 ovarian came out at 41.4 µM; in the assay on NCI-H226 lung, 24.5 µM; in the assay on NCI/ADR-RES ovarian, 7.98 µM; in the assay on U251 CNS it was 38.5 µM; with SF-539 CNS, 41.6 µM; with OVCAR-3 ovarian, 6.78 µM. For the same compound, the TGI in the assay on RXF 393 renal is 11.2 µM; with OVCAR-5 ovarian, 50 µM; in the assay on SR leukemia, more than 100 µM; in the assay on SK-OV-3 ovarian, more than 100 µM; with A498 renal it was 32 µM; with SF-268 CNS, 20.3 µM. The same compound came in with a TGI with SK-MEL-28 melanoma of more than 100 µM.

For the compound `C[N+](C)(C)CCOP(=O)([O-])OCCNC(=O)c1ccc2ccccc2c1`, the TGI in the assay with TK-10 renal, in the assay with HOP-62 NSCLC, with HT29 colon, in the assay on DU-145 prostate, with MDA-MB-435 and in the assay on MOLT-4 leukemia was more than 100 µM each time. Also, the TGI in the assay on IGROV1 ovarian, with NCI-H226 lung, with NCI/ADR-RES ovarian, in the assay on U251 CNS, with SF-539 CNS and in the assay with OVCAR-3 ovarian was more than 100 µM in each case. Moreover, the TGI in the assay with RXF 393 renal, in the assay on OVCAR-5 ovarian, with SR leukemia, with SK-OV-3 ovarian, in the assay with SF-268 CNS and in the assay with SK-MEL-28 melanoma was more than 100 µM throughout.

Turning to `O=C(c1ccccc1)N1CCC(Nc2nccs2)O1` (centres undefined), the TGI with TK-10 renal, with HOP-62 NSCLC, with HT29 colon, with DU-145 prostate, with MDA-MB-435 and in the assay on MOLT-4 leukemia was more than 10 µM in each case. For the same compound, the TGI in the assay with IGROV1 ovarian, in the assay on OVCAR-4 ovarian, with NCI-H226 lung, with NCI/ADR-RES ovarian, in the assay on SF-539 CNS and in the assay with OVCAR-3 ovarian was more than 10 µM throughout. Further, the TGI in the assay with RXF 393 renal, in the assay on OVCAR-5 ovarian, with SR leukemia, in the assay on SK-OV-3 ovarian, with SF-268 CNS and in the assay with SK-MEL-28 melanoma was more than 10 µM throughout.

As to `N#C/C(C(=O)Nc1ccc(Cl)cc1)=C(/N)N1CCOCC1`, the TGI in the assay with HOP-62 NSCLC, in the assay with HT29 colon, in the assay on DU-145 prostate, in the assay on MDA-MB-435, in the assay on MOLT-4 leukemia and in the assay on IGROV1 ovarian was more than 100 µM each time. The TGI in the assay on NCI-H226 lung, in the assay on NCI/ADR-RES ovarian, in the assay with U251 CNS, in the assay with SF-539 CNS, in the assay with OVCAR-3 ovarian and in the assay on OVCAR-5 ovarian was more than 100 µM throughout. Moreover, the TGI in the assay with SR leukemia, in the assay on SK-OV-3 ovarian, in the assay on A498 renal and with SK-MEL-28 melanoma was more than 100 µM in each case.

With `OCCCCCCCCCCCOc1ccc(C2OCC3(CC=CCC3)CO2)cc1` (centres undefined), the TGI with TK-10 renal is 32.1 µM; with HOP-62 NSCLC, 35.9 µM; with HT29 colon, 14.8 µM; with DU-145 prostate, 32.6 µM; in the assay on MDA-MB-435, 38 µM; with MOLT-4 leukemia, more than 100 µM. The TGI in the assay with IGROV1 ovarian was found to be 33 µM; in the assay on OVCAR-4 ovarian, 34 µM; in the assay with NCI-H226 lung, 52.9 µM; with NCI/ADR-RES ovarian, 36.3 µM; with U251 CNS, 33.2 µM; in the assay on SF-539 CNS, 45.6 µM. For the same compound, the TGI with OVCAR-3 ovarian is 57.3 µM; in the assay on OVCAR-5 ovarian it was 46.3 µM; in the assay with SR leukemia, 17.1 µM; with SK-OV-3 ovarian it was 37 µM; in the assay on SF-268 CNS, 40.9 µM; in the assay on SK-MEL-28 melanoma it was 42.4 µM.

Regarding `CC(=O)O[C@H]1C(=O)[C@@]2(C)C(C(OC(=O)c3ccccc3)[C@]3(O)CC(OC(=O)C(O)C(NC(=O)c4ccccc4)c4cccc(Cl)c4)C(C)=C1C3(C)C)[C@]1(OC(C)=O)CO[C@@H]1C[C@@H]2O` (some centres undefined), the TGI with TK-10 renal is more than 10 µM; with HOP-62 NSCLC it was more than 10 µM; in the assay with HT29 colon, more than 10 µM; with DU-145 prostate, 9.16 µM; in the assay on MDA-MB-435, 5.06 µM; in the assay on MOLT-4 leukemia, more than 10 µM. The TGI was more than 10 µM in the assay on IGROV1 ovarian; more than 10 µM in the assay on OVCAR-4 ovarian; more than 10 µM in the assay on NCI-H226 lung; more than 10 µM in the assay on NCI/ADR-RES ovarian; more than 10 µM in the assay on U251 CNS; 9.73 µM in the assay on SF-539 CNS. For the same compound, the TGI in the assay on OVCAR-3 ovarian was more than 10 µM; in the assay on OVCAR-5 ovarian it was more than 10 µM; in the assay on SR leukemia it was 6.72 µM; with SK-OV-3 ovarian it was more than 10 µM; with SF-268 CNS, more than 10 µM.

Take `O=C1OCCC[C@H]2O[C@@H](COCc3ccccc3)C[C@@H]12`: the TGI with TK-10 renal, in the assay on HOP-62 NSCLC, with HT29 colon, in the assay on DU-145 prostate, in the assay on MDA-MB-435 and in the assay with MOLT-4 leukemia was more than 100 µM throughout. The TGI with OVCAR-4 ovarian, with NCI-H226 lung, with NCI/ADR-RES ovarian, in the assay with U251 CNS, in the assay on SF-539 CNS and in the assay with OVCAR-3 ovarian was more than 100 µM each time. The TGI in the assay on OVCAR-5 ovarian, with SR leukemia, with SK-OV-3 ovarian, with A498 renal, in the assay on SF-268 CNS and with SK-MEL-28 melanoma was more than 100 µM throughout.

The values are drawn from PubChem BioAssay (NCI).
